What was measured:
Panc-1 cells = assay: Protein expression using high content cell imaging system, and efficacy score; format: cell-based; details: for Efficacy score: cumulative over proteins of Table 7; on BCL2 protein expression: test concentration or dose not given here; on CCND1 protein expression: test concentration or dose not given here; on CDC25B protein expression: test concentration or dose not given here; on CDKN2A protein expression: test concentration or dose not given here; on COX15 protein expression: test concentration or dose not given here; on GADD45-α protein expression: test concentration or dose not given here; on GAPDH protein expression: test concentration or dose not given here; on ID1 protein expression: test concentration or dose not given here; on MMP-1 protein expression: test concentration or dose not given here; on P27 protein expression: test concentration or dose not given here; on PTN protein expression: test concentration or dose not given here
Panc1 cells = assay: Drug induced cytotoxicity at various time points, comparison with known CDK inhibitors
Panc-1 cell line = assay: Gene expression profile using RTQ-PCR; format: cell-based; details: Panc1, RTQ-PCR
Procedure: The objective of the experiment was to evaluate the synergistic effect of drug combination (Gemcitabine with […]) as compared to individual use of the same. The synergistic effect of the compound or drug combination in the Panc-1 cell line was measured in terms of gene expression and expressed as fold changes as compared to the cell control with no drug treatment. Methodology: Cell lines treated with drugs (Gemcitabine, […] or both) were used for total RNA isolation using a commercial RNA extraction kit (Qiagen Corporation, Germany). […] This was followed by real time quantitative polymerase chain reaction (RTQ PCR) using gene specific primers and standard thermal program of initial denaturation at 95° C. for 5 mins and 40 cycles of 95° C. for 10 seconds, followed by […] for 30 seconds (Realplex PCR machine from Eppendorf, Germany). Quantitative measurement of products made during PCR cycles was normalized against a housekeeping gene (Actin) and used to measure the gene expression as fold changes as compared to respective control (FIG. 5).

[1] = 6 hours post treatment, control 3
[2] = 36 hours post treatment, control 98

CC[C@H](CO)Nc1nc(NCc2ccccc2)c2ncn(C(C)C)c2n1 [Roscovitine]
PTN protein expression (Panc-1 cells; 6 hours post treatment, control 1): 2 fluorescence units | GADD45-α protein expression (Panc-1 cells; [1]): 2 fluorescence units | ID1 protein expression (Panc-1 cells; [1]): 16 fluorescence units | P27 protein expression (Panc-1 cells; 6 hours post treatment, control 6): 6 fluorescence units | CDC25B protein expression (Panc-1 cells; 6 hours post treatment, control 7): 4 fluorescence units | CDKN2A protein expression (Panc-1 cells; 6 hours post treatment, control 8): 10 fluorescence units | CCND1 protein expression (Panc-1 cells; 6 hours post treatment, control 74): 82 fluorescence units | GAPDH protein expression (Panc-1 cells; 6 hours post treatment, control 80): 81 fluorescence units | CASP3 protein expression (Panc-1 cells; 6 hours post treatment, control 147): 217 fluorescence units | MMP-1 protein expression (Panc-1 cells; 6 hours post treatment, control 501): 417 fluorescence units | COX15 protein expression (Panc-1 cells; 6 hours post treatment, control 627): 936 fluorescence units | COX2 protein expression (Panc-1 cells; 6 hours post treatment, control 635): 542 fluorescence units | BAX protein expression (Panc-1 cells; 6 hours post treatment, control 819): 729 fluorescence units | VEGF protein expression (Panc-1 cells; 6 hours post treatment, control 829): 417 fluorescence units | BCL2 protein expression (Panc-1 cells; 6 hours post treatment, control 830): 569 fluorescence units | pRB protein expression (Panc-1 cells; 6 hours post treatment, control 1240): 1578 fluorescence units | Efficacy score (Panc-1 cells; 6 hours): 1.9 | GADD45-α protein expression (Panc-1 cells; 16 hours post treatment, control 13): 49 fluorescence units | CDC25B protein expression (Panc-1 cells; 16 hours post treatment, control 54): 38 fluorescence units | CDKN2A protein expression (Panc-1 cells; 16 hours post treatment, control 64): 47 fluorescence units | P27 protein expression (Panc-1 cells; 16 hours post treatment, control 67): 42 fluorescence units | PTN protein expression (Panc-1 cells; 16 hours post treatment, control 76): 37 fluorescence units | ID1 protein expression (Panc-1 cells; 16 hours post treatment, control 77): 55 fluorescence units | CCND1 protein expression (Panc-1 cells; 16 hours post treatment, control 90): 84 fluorescence units | GAPDH protein expression (Panc-1 cells; 16 hours post treatment, control 100): 99 fluorescence units | CASP3 protein expression (Panc-1 cells; 16 hours post treatment, control 202): 1272 fluorescence units | VEGF protein expression (Panc-1 cells; 16 hours post treatment, control 579): 475 fluorescence units | BCL2 protein expression (Panc-1 cells; 16 hours post treatment, control 644): 529 fluorescence units | BAX protein expression (Panc-1 cells; 16 hours post treatment, control 711): 747 fluorescence units | COX15 protein expression (Panc-1 cells; 16 hours post treatment, control 718): 954 fluorescence units | MMP-1 protein expression (Panc-1 cells; 16 hours post treatment, control 929): 475 fluorescence units | COX2 protein expression (Panc-1 cells; 16 hours post treatment, control 1109): 990 fluorescence units | pRB protein expression (Panc-1 cells; 16 hours post treatment, control 2583): 1632 fluorescence units | Efficacy score (Panc-1 cells; 16 hours): 11.5 | GADD45-α protein expression (Panc-1 cells; 36 hours post treatment, control 19): 44 fluorescence units | COX2 protein expression (Panc-1 cells; 36 hours post treatment, control 86): 67 fluorescence units | P27 protein expression (Panc-1 cells; 36 hours post treatment, control 96): 63 fluorescence units | CCND1 protein expression (Panc-1 cells; [2]): 98 fluorescence units | CDC25B protein expression (Panc-1 cells; [2]): 68 fluorescence units | GAPDH protein expression (Panc-1 cells; [2]): 75 fluorescence units | ID1 protein expression (Panc-1 cells; [2]): 56 fluorescence units | PTN protein expression (Panc-1 cells; 36 hours post treatment, control 100): 98 fluorescence units | CASP3 protein expression (Panc-1 cells; 36 hours post treatment, control 265): 1335 fluorescence units | BAX protein expression (Panc-1 cells; 36 hours post treatment, control 715): 1785 fluorescence units | COX15 protein expression (Panc-1 cells; 36 hours post treatment, control 722): 1992 fluorescence units | VEGF protein expression (Panc-1 cells; 36 hours post treatment, control 1093): 1024 fluorescence units | MMP-1 protein expression (Panc-1 cells; 36 hours post treatment, control 1316): 1024 fluorescence units | BCL2 protein expression (Panc-1 cells; 36 hours post treatment, control 1410): 1091 fluorescence units | CDKN2A protein expression (Panc-1 cells; 36 hours post treatment, control 1441): 1322 fluorescence units | pRB protein expression (Panc-1 cells; 36 hours post treatment, control 2840): 1889 fluorescence units | Efficacy score (Panc-1 cells; 36 hours): 8.1 | % Cytotoxicity in Panc1 cells (Panc1 cells; 6 hrs after drug treatment): 12.35% | % Cytotoxicity in Panc1 cells (Panc1 cells; 16 hrs after drug treatment): 15.24% | % Cytotoxicity in Panc1 cells (Panc1 cells; 36 hrs after drug treatment): 17.35%

CN1CCC(c2c(O)cc(O)c3c(=O)cc(-c4ccccc4Cl)oc23)C(O)C1 (stereo not shown) [drawing 14]
CDK2 gene expression vs control cells with no drug treatment (Panc-1 cell line): 0.74 log 2 fold ratio | CDK4 gene expression vs control cells with no drug treatment (Panc-1 cell line): 0.49 log 2 fold ratio | CDK6 gene expression vs control cells with no drug treatment (Panc-1 cell line): 1.31 log 2 fold ratio | CDK8 gene expression vs control cells with no drug treatment (Panc-1 cell line): −0.99 log 2 fold ratio | DDIT4 gene expression vs control cells with no drug treatment (Panc-1 cell line): −4.21 log 2 fold ratio | RRM1 gene expression vs control cells with no drug treatment (Panc-1 cell line): 0.03 log 2 fold ratio | RRM2 gene expression vs control cells with no drug treatment (Panc-1 cell line): 0.38 log 2 fold ratio | p14 gene expression vs control cells with no drug treatment (Panc-1 cell line): −0.10 log 2 fold ratio | p18 gene expression vs control cells with no drug treatment (Panc-1 cell line): −1.14 log 2 fold ratio | p27 gene expression vs control cells with no drug treatment (Panc-1 cell line): −0.01 log 2 fold ratio
